Measured values as given in article PMC8069432, “Thiosemicarbazide Derivatives Decrease the ATPase Activity of Staphylococcus aureus Topoisomerase IV, Inhibit Mycobacterial Growth, and Affect Replication in Mycobacterium smegmatis” (International Journal of Molecular Sciences, 2021).
Where two headings read alike, the source gives them in different places.

Biological target: T1, S. aureus topoisomerase IV (ATPase kit; ParE subunit) (Staphylococcus aureus, UniProt Q5HG65)
T1 construct: purified topoisomerase IV from commercial kit (Inspiralis), C2E2 heterotetramer; with DNA topoisomerase 4 subunit A
Assay: PK/LDH-coupled ATPase assay, A340
Type: biochemical
Excerpt: PK/LDH-coupled ATPase assay, A340 on S. aureus topoisomerase IV (ATPase kit; ParE subunit)

T1 sequence (Q2FYS4 whole entry): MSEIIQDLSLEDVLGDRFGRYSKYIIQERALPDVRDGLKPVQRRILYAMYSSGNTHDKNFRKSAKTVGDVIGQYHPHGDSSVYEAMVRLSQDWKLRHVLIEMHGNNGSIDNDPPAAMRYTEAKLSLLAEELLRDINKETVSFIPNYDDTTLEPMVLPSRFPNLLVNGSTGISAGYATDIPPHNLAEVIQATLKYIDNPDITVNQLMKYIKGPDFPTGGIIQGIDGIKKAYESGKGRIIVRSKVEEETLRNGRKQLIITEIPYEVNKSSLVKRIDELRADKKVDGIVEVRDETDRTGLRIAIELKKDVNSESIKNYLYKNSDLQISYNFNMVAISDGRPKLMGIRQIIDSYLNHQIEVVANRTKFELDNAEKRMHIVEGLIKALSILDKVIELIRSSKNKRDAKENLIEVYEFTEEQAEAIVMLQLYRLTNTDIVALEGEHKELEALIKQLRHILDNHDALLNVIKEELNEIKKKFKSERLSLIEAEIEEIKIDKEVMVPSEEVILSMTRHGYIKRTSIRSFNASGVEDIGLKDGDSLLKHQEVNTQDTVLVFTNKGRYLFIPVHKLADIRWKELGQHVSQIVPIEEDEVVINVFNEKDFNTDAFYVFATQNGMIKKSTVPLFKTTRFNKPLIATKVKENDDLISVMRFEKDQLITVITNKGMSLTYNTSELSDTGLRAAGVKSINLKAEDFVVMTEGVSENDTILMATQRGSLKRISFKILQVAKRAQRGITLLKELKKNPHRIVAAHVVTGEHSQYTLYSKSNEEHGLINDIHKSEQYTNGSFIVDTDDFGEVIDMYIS
T1 sequence (Q5HG65 whole entry): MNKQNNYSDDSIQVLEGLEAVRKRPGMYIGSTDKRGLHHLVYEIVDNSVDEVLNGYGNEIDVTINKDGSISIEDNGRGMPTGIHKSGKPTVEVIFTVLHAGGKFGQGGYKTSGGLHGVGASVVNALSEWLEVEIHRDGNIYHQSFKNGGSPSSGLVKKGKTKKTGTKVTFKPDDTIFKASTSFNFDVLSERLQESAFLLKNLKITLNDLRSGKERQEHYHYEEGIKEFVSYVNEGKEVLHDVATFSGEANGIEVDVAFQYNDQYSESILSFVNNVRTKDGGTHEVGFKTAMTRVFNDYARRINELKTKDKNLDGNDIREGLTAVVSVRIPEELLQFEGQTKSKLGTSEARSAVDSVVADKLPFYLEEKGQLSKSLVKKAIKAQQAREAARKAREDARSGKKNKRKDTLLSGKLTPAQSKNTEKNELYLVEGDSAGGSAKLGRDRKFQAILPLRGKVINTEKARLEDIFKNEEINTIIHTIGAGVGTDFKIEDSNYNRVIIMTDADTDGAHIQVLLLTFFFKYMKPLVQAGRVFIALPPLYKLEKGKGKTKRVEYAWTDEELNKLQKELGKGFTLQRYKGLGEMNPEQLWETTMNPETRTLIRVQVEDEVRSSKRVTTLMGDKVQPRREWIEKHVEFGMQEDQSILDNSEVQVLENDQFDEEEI

SMILES	inhibition at 20 µM (read-out: 7) [%]	inhibition at 20 µM (read-out: 4) [%]
O=C(NC(=S)NNC(=O)c1cc2ccccc2[nH]1)c1ccccc1 [compound 7, 4-benzoyl-1-(indol-2-oyl) thiosemicarbazide]	49.4 ± 2.27	
O=C(NNC(=S)Nc1ccc([N+](=O)[O-])cc1)c1cc2ccccc2[nH]1 [compound 4, 1-(indol-2-oyl)-4-(4-nitrophenyl) thiosemicarbazide]		55.8 ± 1.59
